Experimental data taken from PubChem BioAssay AID1963873 (Molecular Pharmacology Branch, DTP, NCI, 2024).

Tested on: 276233-004-R-J1-PDC KRAS spheroids with HUVEC/MSC, viability
Assay: Anticancer human tumor 276233-004-R-J1-PDC patient-derived colon adenocarcinoma cell line growth inhibition [KRAS2]
Settings: for IC50: curve of first compound; for viability, T/C: stronger effect = lower value
Method in brief: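 KRAS-mutant tumor cells were grown as spheroids with HUVEC endothelial cells and human MSCs as stroma. Targeted agents were tested alone and with KRAS pathway inhibitors. Doses started at or near clinical Cmax, or 10 microM, descending half-log.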

[1] = second compound 0.1 µM, first compound 0.0316 µM
[2] = second compound 0.1 µM, first compound 0.1 µM
[3] = second compound 0.1 µM, first compound 0.316 µM
[4] = second compound 0.1 µM, first compound 1 µM
[5] = second compound 0.1 µM, first compound 3.16 µM
[6] = second compound 0.1 µM, first compound 10 µM
[7] = second compound 0.316 µM, first compound 0.0316 µM
[8] = second compound 0.316 µM, first compound 0.1 µM
[9] = second compound 0.316 µM, first compound 0.316 µM
[10] = second compound 0.316 µM, first compound 1 µM
[11] = second compound 0.316 µM, first compound 3.16 µM
[12] = second compound 0.316 µM, first compound 10 µM
[13] = second compound 1 µM, first compound 0.0316 µM
[14] = second compound 1 µM, first compound 0.1 µM
[15] = second compound 1 µM, first compound 0.316 µM
[16] = second compound 1 µM, first compound 1 µM
[17] = second compound 1 µM, first compound 3.16 µM
[18] = second compound 1 µM, first compound 10 µM
[19] = second compound 3.16 µM, first compound 0.0316 µM
[20] = second compound 3.16 µM, first compound 0.1 µM
[21] = second compound 3.16 µM, first compound 0.316 µM
[22] = second compound 3.16 µM, first compound 1 µM
[23] = second compound 3.16 µM, first compound 3.16 µM
[24] = second compound 3.16 µM, first compound 10 µM
[25] = second compound 10 µM, first compound 0.0316 µM
[26] = second compound 10 µM, first compound 0.1 µM
[27] = second compound 10 µM, first compound 0.316 µM
[28] = second compound 10 µM, first compound 1 µM
[29] = second compound 10 µM, first compound 3.16 µM
[30] = second compound 10 µM, first compound 10 µM
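Further: cells exposed to agents for seven days before viability read.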
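Wherever viability, T/C is given: 100% = DMSO vehicle control wells and lower values mean fewer viable cells.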

COC(=O)c1ccc2c(C(=Nc3ccc(N(C)C(=O)CN4CCN(C)CC4)cc3)c3ccccc3)c(O)[nH]c2c1 + COc1cc2nc(C)nc(NC(C)c3cc(N)cc(C(F)(F)F)c3)c2cc1OC1CCOC1
IC50 (second compound 0.1 µM): > 10 µM
IC50 (second compound 0.316 µM): > 10 µM
IC50 (second compound 1 µM): > 10 µM
IC50 (second compound 3.16 µM): 2.75 µM
IC50 (second compound 10 µM): < 0.0316 µM
viability, T/C [1]: 96.3%
viability, T/C [2]: 77%
viability, T/C [3]: 80.4%
viability, T/C [4]: 83.1%
viability, T/C [5]: 70%
viability, T/C [6]: 83.7%
viability, T/C [7]: 94.1%
viability, T/C [8]: 71.5%
viability, T/C [9]: 74.2%
viability, T/C [10]: 65.3%
viability, T/C [11]: 70%
viability, T/C [12]: 74.2%
viability, T/C [13]: 78.6%
viability, T/C [14]: 80.9%
viability, T/C [15]: 70%
viability, T/C [16]: 70.2%
viability, T/C [17]: 62.9%
viability, T/C [18]: 61.6%
viability, T/C [19]: 72.1%
viability, T/C [20]: 66.6%
viability, T/C [21]: 58.7%
viability, T/C [22]: 51.5%
viability, T/C [23]: 54.7%
viability, T/C [24]: 6.87%
viability, T/C [25]: 24.1%
viability, T/C [26]: 25.9%
viability, T/C [27]: 30.9%
viability, T/C [28]: 20.9%
viability, T/C [29]: 13.8%
viability, T/C [30]: 1.87%

O=C(c1cc(Cc2n[nH]c(=O)c3ccccc23)ccc1F)N1CCN(C(=O)C2CC2)CC1 + COc1cc2nc(C)nc(NC(C)c3cc(N)cc(C(F)(F)F)c3)c2cc1OC1CCOC1
IC50 (second compound 0.1 µM): > 10 µM
IC50 (second compound 0.316 µM): > 10 µM
IC50 (second compound 1 µM): > 10 µM
IC50 (second compound 3.16 µM): > 10 µM
IC50 (second compound 10 µM): 0.11 µM
viability, T/C [1]: 89.7%
viability, T/C [2]: 102%
viability, T/C [3]: 92.5%
viability, T/C [4]: 96%
viability, T/C [5]: 103%
viability, T/C [6]: 86.5%
viability, T/C [7]: 91.1%
viability, T/C [8]: 100%
viability, T/C [9]: 98%
viability, T/C [10]: 88.9%
viability, T/C [11]: 87.3%
viability, T/C [12]: 75.8%
viability, T/C [13]: 102%
viability, T/C [14]: 111%
viability, T/C [15]: 96.8%
viability, T/C [16]: 89.2%
viability, T/C [17]: 96.8%
viability, T/C [18]: 86.3%
viability, T/C [19]: 71.4%
viability, T/C [20]: 77.8%
viability, T/C [21]: 85.8%
viability, T/C [22]: 66%
viability, T/C [23]: 68.3%
viability, T/C [24]: 58%
viability, T/C [25]: 98.9%
viability, T/C [26]: 45.8%
viability, T/C [27]: 40.9%
viability, T/C [28]: 35.5%
viability, T/C [29]: 26%
viability, T/C [30]: 21.6%
